From patent US7138399B2, “Alkoxypyridine-derivatives” (Altana Pharma AG, priority 2002, dated 2006)

Experiments:
[1] = molecular target: human inducible NO-synthase (Homo sapiens, UniProt P35228); assay: Measurement of inducible NO-synthase activity ([3H]arginine conversion); format: biochemical; conditions: crude cytosolic fraction containing human inducible NO-synthase, arginine 0.1 μM, 45 to 60 min at 37° C.; for IC50: read-out: Inhibition of iNOS activity [measured as −logIC50 (mol/l)] (converted)
Protocol: Measurement of Inducible NO-Synthase Activity
The assay is performed in 96-well microtiter F-plates (Greiner, Frickenhausen, FRG) in a total volume of 100 μl in the presence of 100 nM calmodulin, 226 μM CaCl2, 477 μM MgCl2, 5 μM flavin-adenine-dinucleotide (FAD), 5 μM flavin mononucleotide (FMN), 0.1 mM NADPH, 7 mM glutathione, 10 μM BH4 and 100 mM HEPES pH 7.2. Arginine concentrations are 0.1 μM for enzyme inhibition experiments. 150000 dpm of [^3H]arginine are added to the assay mixture. Enzyme reaction is started by the addition of 4 μg of a crude cytosolic fraction containing human inducible NO-synthase and the reaction mixture is incubated for 45 to 60 min at 37° C. Enzyme reaction is stopped by adding 10 μl of 2M MES-buffer pH 5.0. 50 μl of the incubation mixture are transferred into a MADP N65 filtration microtiter plate (Millipore, Eschborn, FRG) containing already 50 μl of AG-50W-X8 cation exchange resin (Biorad, München, FRG). The resin in the Na loaded form is pre-equilibrated in water and 70 μl (corresponding to 50 μl dry beads) are pipetted under heavy stirring with a 8 channel pipette into the filtration plate. After pipetting 50 μl of the enzyme reaction mixture onto the filtration plates, the plates are placed on a filtration manifold (Porvair, Shepperton, UK) and the flow through is collected in Pico scintillation plates (Packard, Meriden, Conn.). […] The total flow through of 125 μl is mixed with 175 μl of Microscint-40 scintillation cocktail (Packard) and the scintillation plate is sealed with TopSeal P-foil (Packard). Scintillation plates are counted in a szintillation counter.
For the measurement of inducible NO-synthase-inhibiting potencies of compounds increasing concentrations of inhibitors were included into the incubation mixture. IC50-values were calculated from the percent inhibition at given concentrations by nonlinear least square fitting.

| SMILES | IC50 [1] | Inhibition of iNOS activity [measured as −logIC50 (mol/l)] [1] | melting point |
| --- | --- | --- | --- |
| COc1ccnc(CCc2nc3cc(I)cnc3[nH]2)c1 [compound 7, 2-[2-(4-Methoxypyridin-2-yl)ethyl]-6-iodo-3H-imidazo[4,5-b]pyridine] | 32.4 nM |  |  |
| COc1ccnc(CCc2nc3cc(C(F)(F)F)cnc3[nH]2)c1 [compound 9, 2-[2-(4-Methoxypyridin-2-yl)ethyl]-6-trifluoromethyl-3H-imidazo[4,5-b]pyridine] | 89.1 nM |  |  |
| COc1ccnc(CCc2nc3cc(-c4ccccc4)cnc3[nH]2)c1 [compound 10, 2-[2-(4-Methoxypyridin-2-yl)ethyl]-6-phenyl-3H-imidazo[4,5-b]pyridine] | 38.9 nM |  |  |
| COc1ccnc(CCc2nc3cc(C)cnc3[nH]2)c1 [compound 11, 2-[2-(4-Methoxypyridin-2-yl)ethyl]-6-methyl-3H-imidazo[4,5-b]pyridine] | 69.2 nM |  |  |
| COc1ccnc(CCc2nc3cc(CCc4ccccc4)cnc3[nH]2)c1 [compound 14, 2-[2-(4-Methoxypyridin-2-yl)ethyl]-6-(2-phenylethyl)-3H-imidazo[4,5-b]pyridine] | 45.7 nM |  |  |
| COc1ccnc(CCc2nc3cc(-c4ccc(Cl)c(Cl)c4)cnc3[nH]2)c1 [compound 15, 2-[2-(4-Methoxypyridin-2-yl)ethyl]-6-(3,4-dichlorphenyl)-3H-imidazo[4,5-b]pyridine] |  | 7.33 |  |
| COc1ccnc(CCc2nc3cc(-c4ccc(Br)cc4)cnc3[nH]2)c1 [compound 16, 2-[2-(4-Methoxypyridin-2-yl)ethyl]-6-(4-bromphenyl)-3H-imidazo[4,5-b]pyridine] |  | 7.36 |  |
| COc1ccnc(CCc2nc3cc(-c4ccc(C)cc4)cnc3[nH]2)c1 [compound 25, 2-[2-(4-Methoxypyridin-2-yl)ethyl]-6-p-tolyl-3H-imidazo[4,5-b]pyridine] | 34.7 nM |  |  |
| COc1ccnc(CCc2nc3cc(-c4cccnc4)cnc3[nH]2)c1 [compound 26, 2-[2-(4-Methoxypyridin-2-yl)ethyl]-6-(pyridin-3-yl)-3H-imidazo-[4,5-b]pyridine] | 89.1 nM |  |  |
| COc1ccnc(CCc2nc3cc(-c4ccc(N)cc4)cnc3[nH]2)c1 [compound 27, 2-[2-(4-Methoxypyridin-2-yl)ethyl]-6-(4-aminophenyl)-3H-imidazo-[4,5-b]pyridine] | 61.7 nM |  | 117 to 119 °C |
| COc1ccnc(CCc2nc3cc(-c4ccc(O)cc4)cnc3[nH]2)c1 [compound 28, 2-[2-(4-Methoxypyridin-2-yl)ethyl]-6-(4-hydroxyphenyl)-3H-imidazo-[4,5-b]pyridine] | 44.7 nM |  | 206 to 208 °C |
| COc1ccnc(CCc2nc3cc(-c4ccc(N(C)C)cc4)cnc3[nH]2)c1 [compound 29, 2-[2-(4-Methoxypyridin-2-yl)ethyl]-6-(4-N,N-dimethylaminophenyl)-3H-imidazo[4,5-b]pyridine] | 38 nM |  | 176 to 178 °C |
| COc1ccnc(CCc2nc3cc(-c4ccc(C(F)(F)F)cc4)cnc3[nH]2)c1 [compound 30, 2-[2-(4-Methoxypyridin-2-yl)ethyl]-6-(4-trifluormethylphenyl)-3H-imidazo[4,5-b]pyridine] |  | 7.55 |  |
| COc1ccnc(CCc2nc3cc(-c4ccc(OC)c(OC)c4)cnc3[nH]2)c1 [compound 31, 2-[2-(4-Methoxypyridin-2-yl)ethyl]-6-(3,4-dimethoxyphenyl)-3H-imidazo[4,5-b]pyridine] | 75.9 nM |  | 185 to 186 °C |
| COc1ccnc(CCc2nc3cc(-c4ccc(OCc5ccccc5)cc4)cnc3[nH]2)c1 [compound 32, 2-[2-(4-Methoxypyridin-2-yl)ethyl]-6-(4-benzyloxyphenyl)-3H-imidazo[4,5-b]pyridine] | 45.7 nM |  | 161 to 162 °C |
| COc1ccnc(CCc2nc3cc(-c4ccc(OCc5ccccc5)c(F)c4)cnc3[nH]2)c1 [compound 33, 2-[2-(4-Methoxypyridin-2-yl)ethyl]-(4-benzyloxy-3-fluorophenyl)-3H-imidazo[4,5-b]pyridine] |  | 7.29 |  |
| COc1ccnc(CCc2nc3cc(-c4ccc(C#N)cc4)cnc3[nH]2)c1 [compound 34, 2-[2-(4-Methoxypyridin-2-yl)ethyl]-6-(4-cyanophenyl)-3H-imidazo[4,5-b]pyridine] | 33.9 nM |  | 241 to 242 °C |
| COc1ccnc(CCc2nc3cc(-c4ccc(NC(C)=O)cc4)cnc3[nH]2)c1 [compound 36, N-(4-{2-[2-(4-Methoxypyridin-2-yl)ethyl]-3H-imidazo[4,5-b]pyridin-6-yl}phenyl)-acetamide] | 67.6 nM |  | 220 to 221 °C |
| COc1ccnc(CCc2nc3cc(-c4ccc(NS(=O)(=O)c5ccccc5)cc4)cnc3[nH]2)c1 [compound 37, N-(4-{2-[2-(4-Methoxypyridin-2-yl)ethyl]-3H-imidazo[4,5-b]pyridin-6-yl}phenyl)-benzenesulfonamide] | 63.1 nM |  | 251 to 253 °C |
